Measured values: the supplement of paper PMC11061612

Legend:
Gemcitabine = compound: Nc1ccn([C@@H]2O[C@H](CO)[C@@H](O)C2(F)F)c(=O)n1 [Gemcitabine]; conditions: max 0.3 µM
Method in brief: (§1)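 Following 24 hours at 37°C and 5% CO2, cancer cell lines in 1536-well plates with 7.5 μl DMEM/F12 or RPMI and 10% FBS were dosed for 72 hours, final DMSO typically being 0.2%. CellTiter-Glo 2.0 luminescence, scaled between blank-well and DMSO-well means, gave the viability readout. Dose responses were fitted to a two-parameter logistic curve with a non-linear mixed effects model, and the single-agent IC50 was derived from this fit.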

AZD1775 = compound: C=CCn1c(=O)c2cnc(Nc3ccc(N4CCN(C)CC4)cc3)nc2n1-c1cccc(C(C)(C)O)n1 [AZD1775]; conditions: max 3 µM
Method in brief: as §1

Gefitinib = compound: COc1cc2ncnc(Nc3ccc(F)c(Cl)c3)c2cc1OCCCN1CCOCC1 [Gefitinib]; conditions: max 10 µM
Method in brief: as §1

Etoposide = compound: COc1cc([C@@H]2c3cc4c(cc3[C@@H](O[C@@H]3O[C@@H]5CO[C@@H](C)O[C@H]5[C@H](O)[C@H]3O)[C@H]3COC(=O)[C@H]23)OCO4)cc(OC)c1O [Etoposide]; conditions: max 10 µM
Method in brief: as §1

SRA737 = compound: N#Cc1cnc(Nc2cc(NC[C@H]3CNCCO3)c(C(F)(F)F)cn2)cn1 [SRA737]; conditions: max 10 µM
Method in brief: as §1

SN-38 = compound: CCc1c2c(nc3ccc(O)cc13)-c1cc3c(c(=O)n1C2)COC(=O)[C@]3(O)CC [SN-38]; conditions: max 0.3 µM
Method in brief: as §1

AZD5363 = compound: C1CN(CCC1(C(=O)N[C@@H](CCO)C2=CC=C(C=C2)Cl)N)C3=NC=NC4=C3C=CN4 [AZD5363]; conditions: max 10 µM
Method in brief: as §1

Trametinib = compound: CC(=O)Nc1cccc(-n2c(=O)n(C3CC3)c(=O)c3c(Nc4ccc(I)cc4F)n(C)c(=O)c(C)c32)c1 [Trametinib]; conditions: max 1 µM
Method in brief: as §1

AZD5153 = compound: COc1nnc2ccc(N3CCC(c4ccc(OCCN5CCN(C)C(=O)[C@H]5C)cc4)CC3)nn12 [AZD5153]; conditions: max 1 µM
Method in brief: as §1

Doxorubicin = compound: COc1cccc2c1C(=O)c1c(O)c3c(c(O)c1C2=O)C[C@@](O)(C(=O)CO)C[C@@H]3O[C@H]1C[C@H](N)[C@H](O)[C@H](C)O1 [Doxorubicin]; conditions: max 1 µM
Method in brief: as §1

AZD0156 = compound: CN(C)CCCOc1ccc(-c2ccc3ncc4c(c3c2)n(C2CCOCC2)c(=O)n4C)cn1 [AZD0156]; conditions: max 3 µM
Method in brief: as §1

Olaparib = compound: O=C(c1cc(Cc2n[nH]c(=O)c3ccccc23)ccc1F)N1CCN(C(=O)C2CC2)CC1 [Olaparib]; conditions: max 10 µM
Method in brief: as §1

Dasatinib = compound: CC1=C(C(=CC=C1)Cl)NC(=O)C2=CN=C(S2)NC3=CC(=NC(=N3)C)N4CCN(CC4)CCO [Dasatinib]; conditions: max 2 µM
Method in brief: as §1

AZD7648 = compound: Cc1cc2ncnn2cc1Nc1ncc2c(n1)n(C1CCOCC1)c(=O)n2C [AZD7648]; conditions: max 10 µM
Method in brief: as §1

Selumetinib = compound: Cn1cnc2c(F)c(Nc3ccc(Br)cc3Cl)c(C(=O)NOCCO)cc21 [Selumetinib]; conditions: max 10 µM
Method in brief: as §1

AZD4320 = compound: CN(CC[C@H](CSC1=CC=CC=C1)NC2=C(C=C(C=C2)S(=O)(=O)NC(=O)C3=CC=C(C=C3)N4CCC(CC4)[C@H](C5=CC=CC=C5C6=CC=C(C=C6)Cl)O)S(=O)(=O)C(F)(F)F)CCO [AZD4320]; conditions: max 1 µM
Method in brief: as §1

Venetoclax = compound: CC1(C)CCC(CN2CCN(c3ccc(C(=O)NS(=O)(=O)c4ccc(NCC5CCOCC5)c([N+](=O)[O-])c4)c(Oc4cnc5[nH]ccc5c4)c3)CC2)=C(c2ccc(Cl)cc2)C1 [Venetoclax]; conditions: max 1 µM
Method in brief: as §1

Paclitaxel = compound: CC(=O)O[C@H]1C(=O)[C@@]2(C)[C@H]([C@H](OC(=O)c3ccccc3)[C@]3(O)C[C@H](OC(=O)[C@H](O)[C@@H](NC(=O)c4ccccc4)c4ccccc4)C(C)=C1C3(C)C)[C@]1(OC(C)=O)CO[C@@H]1C[C@@H]2O [Paclitaxel]; conditions: max 3 µM
Method in brief: as §1

AZD8186 = compound: C[C@@H](Nc1cc(F)cc(F)c1)c1cc(C(=O)N(C)C)cc2c(=O)cc(N3CCOCC3)oc12 [AZD8186]; conditions: max 10 µM
Method in brief: as §1

Prexasertib = compound: COc1cccc(OCCCN)c1-c1cc(Nc2cnc(C#N)cn2)n[nH]1 [Prexasertib]; conditions: max 1 µM
Method in brief: as §1

Lapatinib = compound: CS(=O)(=O)CCNCc1ccc(-c2ccc3ncnc(Nc4ccc(OCc5cccc(F)c5)c(Cl)c4)c3c2)o1 [Lapatinib]; conditions: max 10 µM
Method in brief: as §1

[1] = compound: O=C(Nc1ccc2[nH]nc(-c3ccncc3)c2c1)[C@@H]1CCN(CC(=O)N2CCN(c3ccc(-c4ncccn4)cc3)CC2)C1; conditions: max 5 µM
Method in brief: as §1

AZD1390 = compound: CC(C)n1c(=O)n(C)c2cnc3cc(F)c(-c4ccc(OCCCN5CCCCC5)nc4)cc3c21 [AZD1390]; conditions: max 0.3 µM
Method in brief: as §1

AZD5991 = compound: Cc1c2c(nn1C)CSCc1cc(n(C)n1)CSc1cc(c3ccccc3c1)OCCCc1c(C(=O)O)n(C)c3c-2c(Cl)ccc13 [AZD5991]; conditions: max 1 µM
Method in brief: as §1

Alisertib = compound: COc1cc(Nc2ncc3c(n2)-c2ccc(Cl)cc2C(c2c(F)cccc2OC)=NC3)ccc1C(=O)O [Alisertib]; conditions: max 10 µM
Method in brief: as §1

MK-2206 = compound: NC1(c2ccc(-c3nc4ccn5c(=O)[nH]nc5c4cc3-c3ccccc3)cc2)CCC1 [MK-2206]; conditions: max 10 µM
Method in brief: as §1

AZD2811 = compound: CCN(CCO)CCCOc1ccc2c(Nc3cc(CC(=O)Nc4cccc(F)c4)[nH]n3)ncnc2c1 [AZD2811]; conditions: max 1 µM
Method in brief: as §1

Palbociclib = compound: CC(=O)c1c(C)c2cnc(Nc3ccc(N4CCNCC4)cn3)nc2n(C2CCCC2)c1=O [Palbociclib]; conditions: max 10 µM
Method in brief: as §1

SG3199 = compound: CC1=CN2[C@@H](C1)C=NC3=CC(=C(C=C3C2=O)OC)OCCCCCOC4=C(C=C5C(=C4)N=C[C@@H]6CC(=CN6C5=O)C)OC [SG3199]; conditions: max 0.001 µM
Method in brief: as §1

Taselisib = compound: Cc1nc(-c2cn3c(n2)-c2ccc(-c4cnn(C(C)(C)C(N)=O)c4)cc2OCC3)n(C(C)C)n1 [Taselisib]; conditions: max 10 µM
Method in brief: as §1

Carboplatin = compound: C1CC(C1)(C(=O)[O-])C(=O)[O-].N.N.[Pt+2] [Carboplatin]; conditions: max 10 µM
Method in brief: as §1

5-Fluorouracil = compound: O=c1[nH]cc(F)c(=O)[nH]1 [5-Fluorouracil]; conditions: max 20 µM
Method in brief: as §1

Crizotinib = compound: C[C@@H](Oc1cc(-c2cnn(C3CCNCC3)c2)cnc1N)c1c(Cl)ccc(F)c1Cl [Crizotinib]; conditions: max 10 µM
Method in brief: as §1

AZD6738 = compound: C[C@@H]1COCCN1C2=NC(=NC(=C2)C3(CC3)[S@](=N)(=O)C)C4=C5C=CNC5=NC=C4 [AZD6738]; conditions: max 10 µM
Method in brief: as §1

Savolitinib = compound: C[C@@H](c1ccc2nccn2c1)n1nnc2ncc(-c3cnn(C)c3)nc21 [Savolitinib]; conditions: max 1 µM
Method in brief: as §1

Cell Line	IC50, cell viability 72 h (Gemcitabine) [nM]	IC50, cell viability 72 h (AZD1775) [nM]	IC50, cell viability 72 h (Gefitinib) [µM]	IC50, cell viability 72 h (Etoposide) [nM]	IC50, cell viability 72 h (SRA737) [µM]	IC50, cell viability 72 h (SN-38) [nM]	IC50, cell viability 72 h (AZD5363) [µM]	IC50, cell viability 72 h (Trametinib) [nM]	IC50, cell viability 72 h (AZD5153) [nM]	IC50, cell viability 72 h (Doxorubicin) [nM]	IC50, cell viability 72 h (AZD0156) [nM]	IC50, cell viability 72 h (Olaparib) [µM]	IC50, cell viability 72 h (Dasatinib) [nM]	IC50, cell viability 72 h (AZD7648) [µM]	IC50, cell viability 72 h (Selumetinib) [µM]	IC50, cell viability 72 h (AZD4320) [nM]	IC50, cell viability 72 h (Venetoclax) [nM]	IC50, cell viability 72 h (Paclitaxel) [nM]	IC50, cell viability 72 h (AZD8186) [µM]	IC50, cell viability 72 h (Prexasertib) [nM]	IC50, cell viability 72 h (Lapatinib) [µM]	IC50, cell viability 72 h [1] [µM]	IC50, cell viability 72 h (AZD1390) [nM]	IC50, cell viability 72 h (AZD5991) [nM]	IC50, cell viability 72 h (Alisertib) [nM]	IC50, cell viability 72 h (MK-2206) [µM]	IC50, cell viability 72 h (AZD2811) [nM]	IC50, cell viability 72 h (Palbociclib) [µM]	IC50, cell viability 72 h (SG3199) [nM]	IC50, cell viability 72 h (Taselisib) [µM]	IC50, cell viability 72 h (Carboplatin) [µM]	IC50, cell viability 72 h (5-Fluorouracil) [µM]	IC50, cell viability 72 h (Crizotinib) [nM]	IC50, cell viability 72 h (AZD6738) [nM]	IC50, cell viability 72 h (Savolitinib) [nM]
MONO-MAC-6 (Acute Myeloid Leukemia)	4.43	535	> 10	2850	3.35	7.64	5.27	446	30.6	127	> 3000	> 10	> 2000	> 10	> 10	> 1000	> 1000	7.21	6.44	52	> 10	2.1	> 300	67.8	2090	4.14	303	> 10	> 1	4.75	> 10	1.63	2980	3400	> 1000
C-33-A (Cervical Carcinoma)	25.6	206	8.59	909	> 10	20.1	2.64	938	> 1000	217	> 3000	> 10	781	> 10	> 10	> 1000	> 1000	19	> 10	52.8	> 10	> 5	> 300	> 1000	> 10000	> 10	> 1000	> 10	> 1	> 10	> 10	> 20	> 10000	1420	> 1000
BxPC-3 (Pancreatic Carcinoma)	> 300	1710	> 10	> 10000	> 10	> 300	> 10	487	> 1000	> 1000	> 3000	> 10	1850	> 10	> 10	> 1000	> 1000	602	> 10	68.4	> 10	4.09	> 300	> 1000	> 10000	> 10	> 1000	> 10	> 1	> 10	> 10	> 20	> 10000	> 10000	> 1000
IA-LM (Non-Small Cell Lung Carcinoma)	> 300	> 3000	> 10	> 10000	> 10	50	> 10	> 1000	> 1000	> 1000	> 3000	> 10	> 2000	> 10	> 10	> 1000	> 1000	> 3000	> 10	> 1000	> 10	> 5	> 300	> 1000	> 10000	> 10	> 1000	> 10	> 1	> 10	> 10	> 20	> 10000	> 10000	> 1000
SK-N-SH (Neuroblastoma)	58.5	1440	> 10	667	> 10	2.92	> 10	> 1000	> 1000	66.9	> 3000	> 10	> 2000	> 10	> 10	794	> 1000	77.4	> 10	26.5	> 10	> 5	> 300	> 1000	59.3	> 10	> 1000	> 10	> 1	1.52	> 10	> 20	2410	2260	> 1000
